Results reported in the NIST ThermoML archive (doi:10.1016/j.tca.2012.05.004).

Assay: xn = mol fraction of the nth substance listed
Conditions: 101.3 kPa, Liquid, Vibrating tube method

CCCC(C)O (centres undefined) [pentan-2-ol] + ClCCCl
mass density [kg/m3]
Conditions | 288.15 K | 293.15 K | 298.15 K | 303.15 K | 308.15 K | 313.15 K
x1 = 0.0509 | 1226.72 | 1219.63 | 1212.52 | 1205.37 | 1198.2 | 1191
x1 = 0.0999 | 1196.47 | 1189.53 | 1182.56 | 1175.56 | 1168.53 | 1161.46
x1 = 0.1497 | 1167.33 | 1160.55 | 1153.74 | 1146.89 | 1140.02 | 1133.12
x1 = 0.2001 | 1139.13 | 1132.52 | 1125.87 | 1119.19 | 1112.48 | 1105.73
x1 = 0.2502 | 1112.6 | 1106.17 | 1099.71 | 1093.19 | 1086.65 | 1080.06
x1 = 0.2998 | 1087.39 | 1081.13 | 1074.82 | 1068.48 | 1062.1 | 1055.67
x1 = 0.3504 | 1062.46 | 1056.4 | 1050.28 | 1044.1 | 1037.89 | 1031.63
x1 = 0.4003 | 1038.87 | 1033 | 1027.05 | 1021.06 | 1015.01 | 1008.92
x1 = 0.4498 | 1016.42 | 1010.71 | 1004.93 | 999.094 | 993.214 | 987.283
x1 = 0.4996 | 994.615 | 989.082 | 983.473 | 977.807 | 972.094 | 966.328
x1 = 0.55 | 973.401 | 967.993 | 962.539 | 957.039 | 951.485 | 945.875
x1 = 0.5998 | 953.123 | 947.916 | 942.637 | 937.302 | 931.911 | 926.465
x1 = 0.6497 | 933.494 | 928.405 | 923.275 | 918.089 | 912.85 | 907.552
x1 = 0.6997 | 914.579 | 909.663 | 904.685 | 899.659 | 894.573 | 889.432
x1 = 0.7493 | 896.637 | 891.863 | 887.037 | 882.154 | 877.213 | 872.217
x1 = 0.8001 | 878.694 | 874.079 | 869.408 | 864.68 | 859.891 | 855.042
x1 = 0.8497 | 861.674 | 857.211 | 852.695 | 848.111 | 843.467 | 838.76
x1 = 0.8991 | 845.438 | 841.13 | 836.763 | 832.331 | 827.833 | 823.267
x1 = 0.9504 | 828.863 | 824.722 | 820.52 | 816.244 | 811.899 | 807.481
